Patent publication US7598294B2, “3,4-methylenedioxy-substituted chalcones as therapeutic agents” (Spear Therapeutics Limited, priority 2001, dated 2009)
Where two headings read alike, the source gives them in different places.

Tests used:
[1] = test system: breast cancer MCF-7 cells; experiment: Intrinsic activity of prodrug and hydroxylated metabolite in breast cancer MCF-7 cells; format: cell-based; conditions: Homo sapiens, MCF7; prodrug versus hydroxylated metabolite
K562 = conditions: antitumour activity; cited from earlier work
[2] = MCF-7 cell line (non-induced) cytotoxicity assay (MTT); format: cell-based; conditions: human, MCF-7 breast tumour cells, non-induced (no TCDD), non-induced MCF-7 cells
MCF-10A (Normal Breast) = experiment: MCF-10A normal cell line cytotoxicity assay; format: cell-based, human; conditions: Homo sapiens, MCF-10A, read-out: IC50 against the normal cell line
MDA-468 (Breast Tumor) = experiment: MDA-468 tumour cell line cytotoxicity assay; conditions: for Tumor Selectivity Differential Factor: IC50 MCF-10A / IC50 MDA-468, fold more toxic to cancer cells than to normal cells
Method: MDA-468 Tumour Cell Line Versus MCF-10A Normal Cell Line Assay
This cell culture based assay is performed using the two cell lines MDA-468 and MCF-10A. The MDA-468 cell line is an advanced breast cancer cell line, whilst the MCF-10A cell line is a normal breast cell line.
The tumour selectivity differential factor(TSDF) is calculated by dividing the IC50 obtained from the MCF-10A data by the IC50 obtained from the MDA-468 data.

TCDD-induced MCF-7 cells = experiment: TCDD-induced MCF-7 cell line cytotoxicity assay (MTT); conditions: for Tumor Selectivity Differential Factor: IC50 MCF-7 cells / IC50 TCDD-induced MCF-7 cells, fold more toxic to "tumour" cells than to "normal" cells; for IC50: read-out: Cytotoxicity TCDD-induced MCF-7 Cells IC50, 10 nM TCDD for 24 hours, then 96 hours with compound, MTT
Method: TCDD-Induced MCF-7 Cell Line Versus MCF-7 Cell Line Cytotoxicity Assay
1×10^3 cells were plated out in 100 μl medium per well of 96-well flat-bottomed plates (Fisher). […] The medium was then carefully aspirated and 100 μl fresh medium added. […] 50 μl MTT (Thiazol blue, Sigma) at 2 mg/ml in Dulbecco's phosphate buffered saline-A, was then added to each well for 3 hours: All medium was aspirated, then the formazan product generated by viable cells was solubilized with 150 μl DMSO. Plates were vortexed and the absorbance at 540 nm determined using a plate reader. […] All determinations were carried out in at least triplicate.

[3] = MCF-10A normal cell line cytotoxicity assay; format: cell-based, human; conditions: human, MCF-10A normal breast cells; without TCDD
[4] = read-out: Cytotoxicity MDA-468 (Breast Tumor) IC50, without TCDD

SMILES	IC50 at 96 h [2] [µM]	Tumor Selectivity Differential Factor (MDA-468 (Breast Tumor))	Tumor Selectivity Differential Factor (TCDD-induced MCF-7 cells)	IC50 (TCDD-induced MCF-7 cells) [µM]	further results
COc1cc(OC)cc(C(=O)/C=C/c2ccc(OC)c(O)c2)c1 [(E)-1-(3-Hydroxy-4-methoxyphenyl)-3-(3,5-dimethoxyphenyl) prop-1-en-3-one]					IC50 [1]: 0.00065 µM
COc1ccc(/C=C/C(=O)c2cc(OC)cc(OC)c2)cc1 [(E)-1-(4-methoxyphenyl)-3-(3,5-dimethoxyphenyl)prop-1-en-3-one]					IC50 [1]: 0.69 µM
CC(=O)/C=C/c1ccc(O)cc1 [(E)-1-(4′-hydroxyphenyl)but-1-en-3-one]					IC50 (K562): 60 µM
COc1cc(C(=O)/C=C/c2ccc3c(c2)OCO3)cc(OC)c1OC [DMU-135, (E)-1-(3,4-Methylenedioxyphenyl)-3-(3,4,5-trimethoxyphenyl)prop-1-en-3-one]	0.92	120	65		IC50 (MCF-10A (Normal Breast)): 2.3 µM; melting point: 135 °C; IC50 (MDA-468 (Breast Tumor); read-out: IC50 against the advanced tumour cell line, MDA-468, FIG. 2): 0.02 µM
COc1cc(OC)cc(C(=O)/C=C/c2ccc3c(c2)OCO3)c1 [DMU-403, (E)-1-(3,4-methylenedioxyphenyl)-3-(3,5-dimethoxyphenyl)prop-1-en-3-one]	3.5		6	0.57	
COc1ccc(C(=O)/C=C/c2ccc3c(c2)OCO3)c(OC)c1 [DMU-407, (E)-1-(3,4-methylenedioxyphenyl)-3-(2,4-dimethoxyphenyl)prop-1-en-3-one]	7		3	2.7	melting point: 137 °C
COc1ccc(C(=O)/C=C/c2ccc3c(c2)OCO3)c(OC)c1OC [DMU-419, (E)-1-(3,4-methylenedioxyphenyl)-3-(2,3,4-trimethoxyphenyl)prop-1-en-3-one]	2.8		3	0.84	
COc1ccc(OC)c(C(=O)/C=C/c2ccc3c(c2)OCO3)c1 [DMU-423, (E)-1-(3,4-methylenedioxyphenyl)-3-(2,5-dimethoxyphenyl)prop-1-en-3-one]	3.5		13	0.26	melting point: 101 °C
COc1cccc2c1C(=O)c1c(O)c3c(c(O)c1C2=O)C[C@@](O)(C(=O)CO)C[C@@H]3O[C@H]1C[C@H](N)[C@H](O)[C@H](C)O1 [Doxorubicin, doxorubicin]		0.1			IC50 at 96 h [3]: 0.0003 µM; fold more toxic to normal cells than to cancer cells (MDA-468 (Breast Tumor); MCF-10A versus MDA-468): 10 fold; IC50 (MDA-468 (Breast Tumor); [4]): 0.003 µM
CN(Cc1cnc2nc(N)nc(N)c2n1)c1ccc(C(=O)N[C@@H](CCC(=O)O)C(=O)O)cc1 [Methotrexate, methotrexate]		1.5			IC50 at 96 h [3]: 0.06 µM; IC50 (MDA-468 (Breast Tumor); [4]): 0.04 µM
CC/C(=C(\c1ccccc1)c1ccc(OCCN(C)C)cc1)c1ccccc1 [Tamoxifen, tamoxifen]		1.6			IC50 at 96 h [3]: 6.3 µM; IC50 (MDA-468 (Breast Tumor); [4]): 4 µM
